Legend:
Type in all cases: functional
SK-MEL-28 = test: Growth inhibition of human SK-MEL-28 cells after 48 hrs by sulforhodamine B assay; conditions: SK-MEL-28, 48 h
M14 = test: Growth inhibition of human M14 cells after 48 hrs by sulforhodamine B assay; conditions: M14, 48 h
[1] = Growth inhibition of human OVCAR4 cells after 48 hrs by sulforhodamine B assay; conditions: OVCAR-4, 48 h
[2] = Growth inhibition of human MOLT4 cells after 48 hrs by sulforhodamine B assay; conditions: MOLT-4, 48 h
MCF7 = test: Growth inhibition of human MCF7 cells after 48 hrs by sulforhodamine B assay; conditions: MCF7, 48 h
NCI-H322M = test: Growth inhibition of human NCI-H322M cells after 48 hrs by sulforhodamine B assay
NCI-H460 = test: Growth inhibition of human NCI-H460 cells after 48 hrs by sulforhodamine B assay; conditions: NCI-H460, 48 h
SF-268 = test: Growth inhibition of human SF268 cells after 48 hrs by sulforhodamine B assay; conditions: SF-268, 48 h
MDA-MB-468 = test: Growth inhibition of human MDA-MB-468 cells after 48 hrs by sulforhodamine B assay; conditions: MDA-MB-468, 48 h
[3] = Growth inhibition of human HCC2998 cells after 48 hrs by sulforhodamine B assay; conditions: HCC 2998, 48 h
SK-OV-3 = test: Growth inhibition of human SKOV3 cells after 48 hrs by sulforhodamine B assay; conditions: SK-OV-3, 48 h
[4] = read-out: LC50 (the source's name)
[5] = read-out: pLC50 (the source's name) (converted)

SMILES: Nc1nc(-c2ccccc2Cl)cc(-c2ccc(Cl)cc2Cl)n1
- GI50 (SK-MEL-28; read-out: GI50): 20.9 µM
- CC50 (SK-MEL-28; [4]): > 100 µM
- TGI (SK-MEL-28; read-out: TGI): > 100 µM
- GI50 (SK-MEL-28; read-out: pGI50 (converted)): 20.9 µM
- CC50 (SK-MEL-28; [5]): > 100 µM
- TGI (SK-MEL-28; read-out: pTGI): > 100 µM
- GI50 (M14; read-out: GI50): 5.95 µM
- CC50 (M14; [4]): > 100 µM
- TGI (M14; read-out: TGI): > 100 µM
- GI50 (M14; read-out: pGI50 (converted)): 5.89 µM
- CC50 (M14; [5]): > 100 µM
- TGI (M14; read-out: pTGI): > 100 µM
- GI50 [1]: 12 µM
- CC50 [1, 4]: > 100 µM
- CC50 [1, 5]: > 100 µM
- TGI ([1]; read-out: pTGI (converted)): 89.1 µM
- GI50 ([2]; read-out: GI50): 4.82 µM
- CC50 [2, 4]: > 100 µM
- TGI ([2]; read-out: TGI): > 100 µM
- GI50 ([2]; read-out: pGI50 (converted)): 4.79 µM
- CC50 [2, 5]: > 100 µM
- TGI ([2]; read-out: pTGI): > 100 µM
- GI50 (MCF7; read-out: GI50): 3.45 µM
- CC50 (MCF7; [4]): > 100 µM
- TGI (MCF7; read-out: TGI): > 100 µM
- GI50 (MCF7; read-out: pGI50 (converted)): 3.47 µM
- CC50 (MCF7; [5]): > 100 µM
- TGI (MCF7; read-out: pTGI): > 100 µM
- GI50 (NCI-H322M; read-out: GI50): 31.2 µM
- CC50 (NCI-H322M; [4]): > 100 µM
- TGI (NCI-H322M; read-out: TGI): > 100 µM
- GI50 (NCI-H322M; read-out: pGI50 (converted)): 30.9 µM
- CC50 (NCI-H322M; [5]): > 100 µM
- TGI (NCI-H322M; read-out: pTGI): > 100 µM
- GI50 (NCI-H460; read-out: GI50): 3.31 µM
- CC50 (NCI-H460; [4]): > 100 µM
- TGI (NCI-H460; read-out: TGI): 23.1 µM
- GI50 (NCI-H460; read-out: pGI50 (converted)): 3.31 µM
- CC50 (NCI-H460; [5]): > 100 µM
- TGI (NCI-H460; read-out: pTGI (converted)): 22.9 µM
- GI50 (SF-268; read-out: GI50): 5.01 µM
- CC50 (SF-268; [4]): > 100 µM
- TGI (SF-268; read-out: TGI): 81.6 µM
- GI50 (SF-268; read-out: pGI50 (converted)): 5.01 µM
- CC50 (SF-268; [5]): > 100 µM
- TGI (SF-268; read-out: pTGI (converted)): 81.3 µM
- GI50 (MDA-MB-468; read-out: GI50): 2.18 µM
- CC50 (MDA-MB-468; [4]): > 100 µM
- TGI (MDA-MB-468; read-out: TGI): 8.66 µM
- GI50 (MDA-MB-468; read-out: pGI50 (converted)): 2.19 µM
- CC50 (MDA-MB-468; [5]): > 100 µM
- TGI (MDA-MB-468; read-out: pTGI (converted)): 8.71 µM
- GI50 ([3]; read-out: GI50): 7.19 µM
- CC50 [3, 4]: > 100 µM
- TGI ([3]; read-out: TGI): 44 µM
- GI50 ([3]; read-out: pGI50 (converted)): 7.24 µM
- CC50 [3, 5]: > 100 µM
- TGI ([3]; read-out: pTGI): 43.7 µM
- GI50 (SK-OV-3; read-out: GI50): 10.1 µM
- CC50 (SK-OV-3; [4]): > 100 µM
- TGI (SK-OV-3; read-out: TGI): 62.3 µM
- GI50 (SK-OV-3; read-out: pGI50 (converted)): 10 µM
- CC50 (SK-OV-3; [5]): > 100 µM
- TGI (SK-OV-3; read-out: pTGI (converted)): 61.7 µM
